Results reported in US20090137652A1, “METHODS FOR NEUROPROTECTION” (priority 2005, published 2009).

System: PC12 cells
Test: PC12 cell serum withdrawal model, MTS cell survival assay
Type: cell-based
Source text: Serum withdrawal is a cytotoxic environmental challenge that results in cell death in cultured cell lines as well as in primary cells of various tissue origins, including nerve cells. In particular, pheochromocytoma (PC) 12 cells have been widely employed as an in vitro neuronal cell model for a wide variety of neurodegenerative and cell death related disorders (Muriel, et al, Mitochondrial free calcium levels (Rhod-2 fluorescence) and ultrastructural alterations in neuronally differentiated PC12 cells during ceramide-dependent cell death, J. Comp. Neurol., 2000, 426(2), 297-315; Dermitzaki, et al, Opioids transiently prevent activation of apoptotic mechanisms following short periods of serum withdrawal, J. Neurochem., 2000, 74(3), 960-969; Carlile, et al, Reduced apoptosis after nerve growth factor and serum withdrawal: conversion of tetrameric glyceraldehyde-3-phosphate dehydrogenase to a dimer, Mol. Pharmacol., 2000, 57(1), 2-12). PC12 cells were cultured in sterile media (RPMI 1640) supplemented with 10% heat-inactivated horse serum and 5% fetal bovine serum (FBS). The culture medium also contained Penicillin-Streptomycin-Neomycin antibiotic (50 µg, 50 µg, 100 µg, respectively). Medium was exchanged every other day and the cells were passed in log phase near confluence.
The control cells were cultured in regular media without any treatment. An enantiomer of Formula 7 or Formula 8 (10 µM) was mixed well in the medium and then applied to the cells. For the 2 day assay, an enantiomer of Formula 7 or Formula 8 (10 µM) was only applied to the cells once at the time of serum withdrawal. For the 7 day assay, an enantiomer of Formula 7 or Formula 8 (10. mu.M) was applied to the cells at the time of serum withdrawal and every 48 hr thereafter when cells were changed with fresh new serum-free medium. In the serum withdrawal group, the cells were cultured in serum-free medium with no additional enantiomer of Formula 7 or Formula 8. Cell survival was determined by the 3-(4,5-dimethylthiazol-2-yl)-5-(3-[…])-2-(4-sulfophenyl)-2H-tetrazolium inner salt (MTS) assay at 2 or 7 days after serum withdrawal.
At the end of the experiment, cells were washed with fresh medium and incubated with MTS solution in a humidified 37° C. with 5% CO2 incubator for 1.5 hr. After the incubation period, the cells were immediately analyzed using a Softmax program (Molecular Devices). […] The assay is based on the cellular conversion of the tetrazolium salt, MTS, into a formazan that is soluble in tissue culture medium and measured directly at 490 nm in 96-well assay plates. The absorbance is directly proportional to the number of living cells in culture. The arbitrary absorbance reading in control cells is expressed as 100% survival rate.

Compound: NC(=O)OC[C@@H](O)c1ccccc1Cl [Formula 7]
- 2 Day Survival Rate (10 µM applied once at serum withdrawal, MTS assay 2 days after serum withdrawal, control 100, serum-free 49.6): 69.4 ± 1.7^1%
- 7 Day Survival Rate (10 µM at serum withdrawal and every 48 hr, MTS assay 7 days after serum withdrawal, control 100, serum-free 23.8): 79.9 ± 4.0^2%
